Source: ChEMBL document CHEMBL5608197, “Optimization of pyrazolopyridine 4-carboxamides with potent antimalarial activity for which resistance is associated with the P. falciparum transporter ABCI3” (Eur J Med Chem, 2024)
Activity calls are given as the source filed them. No cut-off for these calls is given here.

How the values were obtained:
CYP2C19 = CYP2C19 (Homo sapiens, UniProt P33261); assay: Inhibition of CYP2C19 (unknown origin) at 10 uM relative to control; format: ADME
CYP2D6 [1] = target: T1, CYP2D6 (Homo sapiens, UniProt P10635); assay: Inhibition of CYP2D6 (unknown origin) at 1 uM relative to control; format: ADME
Plasmodium falciparum [2] = assay: (§1) Resistance ratio of EC90 for antiplasmodial activity against drug-resistant recrudescent Plasmodium falciparum Dd2-B2 in 2x10^5 to 2x10^6 bulk culture selection measured on day 15 under initial selection drug pressure concentration of 3XEC50 to EC90 for antiplasmodial activity against Plasmodium flaciparum Dd2 measured after 72 hrs; format: functional
Plasmodium falciparum [3] = assay: as §1, with “of EC50” for “of EC90”, “to EC50” for “to EC90”, “flaciparum Dd2-B2” for “flaciparum Dd2”; format: functional
[4] = Ratio of EC50 for antiplasmodial activity against ring stage of Plasmodium falciparum 3D7 expressing ABCI3-HAreg in absence of ABCI3 inhibitor, GlcN to EC50 for antiplasmodial activity against ring stage of Plasmodium falciparum 3D7 expressing ABCI3-HAreg in presence of ABCI3 inhibitor, GlcN; format: functional
[5] = Permeability of the compound across basolateral to apical side in human Caco-2 cells at pH 7.4; format: ADME, cell-based; details: Caco-2, pH 7.4, read-out: permeability
CYP2D6 [6] = target: T1, CYP2D6; assay: Inhibition of CYP2D6 (unknown origin) at 10 uM relative to control; format: ADME
Plasmodium falciparum [7] = assay: Antiplasmodial activity against multidrug-resistant Plasmodium falciparum Cam3.1 infected in erythrocytes assessed as inhibition of parasite growth incubated for 72 hrs by [3H]hypoxanthine incorporation based microbeta counting analysis; format: functional, organism-based; details: Cam3.1, Erythrocyte
Plasmodium falciparum [8] = assay: Antiplasmodial activity against drug-resistant Plasmodium falciparum Dd2-B2 in 2x10^7 bulk culture selection assessed as concentration required to complete parasite killing measured on day 2 under initial selection drug pressure concentration of 3XEC50 by Minimum inoculum of resistance analysis; format: functional; details: time 2 day
Plasmodium falciparum [9] = assay: Antiplasmodial activity against multidrug-resistant Plasmodium falciparum Dd2 harboring PI4K-S743F mutant infected in erythrocytes assessed as inhibition of parasite growth incubated for 72 hrs by [3H]hypoxanthine incorporation based microbeta counting analysis; format: functional, organism-based; details: Dd2, Erythrocyte
[10] = Permeability of the compound across apical to basolateral side in human Caco-2 cells at pH 7.4; format: ADME, cell-based; details: Caco-2, pH 7.4, read-out: permeability
Plasmodium falciparum [11] = assay: Antiplasmodial activity against drug-resistant Plasmodium falciparum Dd2-B2 bulk cultures assessed as minimum inoculum of resistance measured under initial selection drug pressure concentration of 3XEC50 by MIR analysis; format: functional
[12] = Intrinsic clearance in rat hepatocytes at 1 uM measured per million cells for 90 mins by LC-MS/MS analysis; format: ADME, cell-based, Hepatocyte; details: read-out: CLH
Plasmodium falciparum [13] = assay: Antimalarial activity against asexual stage of Plasmodium falciparum 3D7 infected in erythrocytes assessed as lag phase of parasite growth at 10XEC50 incubated for 24 hrs followed by drug removal and incubation for 48 hrs with CFDA-SE labelled fresh erythrocytes by Hoechst 33342 staining based two-color flow cytometry; format: functional, organism-based; details: Erythrocyte
Plasmodium falciparum [14] = assay: Antiplasmodial activity against multidrig-resistant Plasmodium falciparum Dd2 harboring eEF2Y-I86N mutant infected in erythrocytes assessed as inhibition of parasite growth incubated for 72 hrs by [3H]hypoxanthine incorporation based microbeta counting analysis; format: functional, organism-based; details: Dd2, Erythrocyte

T1 sequence (P10635 whole entry): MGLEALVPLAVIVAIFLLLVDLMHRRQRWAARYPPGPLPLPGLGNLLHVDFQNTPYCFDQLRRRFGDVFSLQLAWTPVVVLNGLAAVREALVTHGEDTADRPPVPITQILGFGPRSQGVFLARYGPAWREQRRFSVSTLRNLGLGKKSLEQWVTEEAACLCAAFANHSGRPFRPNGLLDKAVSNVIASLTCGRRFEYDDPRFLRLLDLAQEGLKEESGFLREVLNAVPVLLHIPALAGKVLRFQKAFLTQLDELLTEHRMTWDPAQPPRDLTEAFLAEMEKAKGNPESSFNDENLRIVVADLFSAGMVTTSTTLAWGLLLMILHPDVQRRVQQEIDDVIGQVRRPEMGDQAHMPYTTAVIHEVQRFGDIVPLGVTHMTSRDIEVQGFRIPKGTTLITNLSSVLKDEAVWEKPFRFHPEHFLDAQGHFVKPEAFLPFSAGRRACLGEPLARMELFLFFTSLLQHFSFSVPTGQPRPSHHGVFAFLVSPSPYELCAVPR
Sequence of CYP2C19 (P33261 whole entry): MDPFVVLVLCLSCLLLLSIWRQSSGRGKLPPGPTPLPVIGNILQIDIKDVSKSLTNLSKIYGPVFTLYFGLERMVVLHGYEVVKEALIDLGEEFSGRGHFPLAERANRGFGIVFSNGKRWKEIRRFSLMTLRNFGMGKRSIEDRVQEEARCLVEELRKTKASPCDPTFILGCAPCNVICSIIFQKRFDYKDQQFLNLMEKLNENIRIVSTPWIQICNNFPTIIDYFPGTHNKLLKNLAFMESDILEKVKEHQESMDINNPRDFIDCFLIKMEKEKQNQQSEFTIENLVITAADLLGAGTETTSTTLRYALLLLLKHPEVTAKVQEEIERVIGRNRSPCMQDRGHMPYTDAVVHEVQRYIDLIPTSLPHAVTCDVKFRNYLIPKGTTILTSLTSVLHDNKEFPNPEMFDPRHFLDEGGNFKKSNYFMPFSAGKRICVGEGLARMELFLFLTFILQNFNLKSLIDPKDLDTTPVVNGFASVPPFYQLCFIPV

Cc1nn(C(C)(C)C)c2nc(C3CC3)cc(C(=O)N3CCOc4ccncc43)c12
inhibition at 10 µM (CYP2C19): 17.4% | inhibition at 1 µM (CYP2D6 [1]): 43.8% | Ratio (Plasmodium falciparum [2]): 5 | Ratio EC50 (Plasmodium falciparum [3]): 3 | Ratio EC50 [4]: 3.4 | Papp B→A [5]: 23.7 ×10⁻⁶ cm/s | inhibition at 10 µM (CYP2D6 [6]): 86.4% | EC50 (Plasmodium falciparum [7]): 6 nM | Activity (Plasmodium falciparum [8]): 28 nM | EC50 (Plasmodium falciparum [9]): 6 nM | Papp A→B [10]: 17.1 ×10⁻⁶ cm/s | Activity (Plasmodium falciparum [11]): 1.6 10^6No_unit | hepatocyte CLint at 1 µM [12]: 26 µL/min/1e6 cells | Activity (Plasmodium falciparum [13]): Active | EC50 (Plasmodium falciparum [14]): 7 nM
